# Source: patent US4401660A, “Ester derivatives of 5-O-mycaminosyl tylonolide and method of using same” (Eli Lilly and Company, priority 1981, dated 1983)
# Like-named read-outs stand apart in the source and are kept apart here.
# Tests used:
# [1] = test system: Pasteurella multocida; assay: Treatment of Pasteurella infections in chicks (Table V); format: in vivo, one-day-old chicks; conditions: Pasteurella multocida, sc, 4 h; 30 mg/kg by subcutaneous injection one and four hours post challenge; read-out: Deaths in Treated Chicks/Number Treated (converted)
# In short: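 Dosing was 30 mg/kg by subcutaneous injection, one and four hours after challenge. Day-old chicks received 0.1 ml of a 10^-3 dilution of a 20-hour tryptose broth culture of avian P. multocida subcutaneously. Nonmedicated infected chicks served as controls, ten per group.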
# [2] = test system: Streptococcus pyogenes C203; assay: MIC, standard agar-dilution assay (Table II); format: cell-based; design: unit not given here
# Description: (§1) The MIC's in Table II were determined by standard agar-dilution assays. The MIC's in Table III were obtained using a conventional broth-dilution microtiter test.
# [3] = test system: Staphylococcus aureus X400; assay: MIC, standard agar-dilution assay (Table II); format: cell-based; design: unit not given here; conditions: Staphylococcus aureus X400, methicillin-resistant strain
# Description: as §1
# [4] = test system: Haemophilus influenzae R252; assay: MIC, standard agar-dilution assay (Table II); format: cell-based; design: unit not given here; conditions: Haemophilus influenzae R252, ampicillin-resistant strain
# Description: as §1
# [5] = test system: Staphylococcus aureus X1.1; assay: MIC, standard agar-dilution assay (Table II); format: cell-based; design: unit not given here
# Description: as §1
# [6] = test system: Staphylococcus aureus V41; assay: MIC, standard agar-dilution assay (Table II); format: cell-based; design: unit not given here; conditions: Staphylococcus aureus V41, penicillin-resistant strain
# Description: as §1
# [7] = test system: Staphylococcus epidermidis EPI2; assay: MIC, standard agar-dilution assay (Table II); format: cell-based; design: unit not given here
# Description: as §1
# [8] = test system: Streptococcus Group D 9960; assay: MIC, standard agar-dilution assay (Table II); format: cell-based; design: unit not given here
# Description: as §1
# [9] = test system: Streptococcus pneumoniae Park I; assay: MIC, standard agar-dilution assay (Table II); format: cell-based; design: unit not given here
# Description: as §1
# [10] = test system: Staphylococcus aureus S13E; assay: MIC, standard agar-dilution assay (Table II); format: cell-based; design: unit not given here
# Description: as §1
# [11] = test system: Streptococcus Group D X66; assay: MIC, standard agar-dilution assay (Table II); format: cell-based; design: unit not given here
# Description: as §1
# [12] = test system: Haemophilus influenzae Holt; assay: MIC, standard agar-dilution assay (Table II); format: cell-based; design: unit not given here; conditions: ampicillin-sensitive strain
# Description: as §1
# [13] = test system: Staphylococcus epidermidis EPI1; assay: MIC, standard agar-dilution assay (Table II); format: cell-based; design: unit not given here
# Description: as §1
# [14] = test system: Pasteurella multocida 60A; assay: MIC, broth-dilution microtiter test (Table III); format: cell-based; design: unit not given here; conditions: avian isolate
# Description: as §1
# [15] = test system: Pasteurella multocida 40G; assay: MIC, broth-dilution microtiter test (Table III); format: cell-based; design: unit not given here
# Description: as §1
# [16] = test system: Pasteurella multocida 22A; assay: MIC, broth-dilution microtiter test (Table III); format: cell-based; design: unit not given here
# Description: as §1
# [17] = test system: Mycoplasma gallisepticum; assay: MIC, broth-dilution microtiter test (Table III); format: cell-based; design: unit not given here
# Description: as §1
# [18] = test system: Pasteurella multocida 68C; assay: MIC, broth-dilution microtiter test (Table III); format: cell-based; design: unit not given here
# Description: as §1
# [19] = test system: Pasteurella haemolytica 41D; assay: MIC, broth-dilution microtiter test (Table III); format: cell-based; design: unit not given here
# Description: as §1
# [20] = test system: Streptococcus sp. 80; assay: MIC, broth-dilution microtiter test (Table III); format: cell-based; design: unit not given here
# Description: as §1
# [21] = test system: Mycoplasma synoviae; assay: MIC, broth-dilution microtiter test (Table III); format: cell-based; design: unit not given here
# Description: as §1
# [22] = test system: Pasteurella multocida 17E; assay: MIC, broth-dilution microtiter test (Table III); format: cell-based; design: unit not given here; conditions: bovine isolate
# Description: as §1
# [23] = test system: Staphylococcus aureus; assay: MIC, broth-dilution microtiter test (Table III); format: cell-based; design: unit not given here
# Description: as §1
# [24] = test system: Pasteurella haemolytica 22C; assay: MIC, broth-dilution microtiter test (Table III); format: cell-based; design: unit not given here
# Description: as §1
# [25] = test system: Mycoplasma hyorhinis; assay: MIC, broth-dilution microtiter test (Table III); format: cell-based; design: unit not given here
# Description: as §1
# [26] = test system: Pasteurella haemolytica 23C; assay: MIC, broth-dilution microtiter test (Table III); format: cell-based; design: unit not given here
# Description: as §1
# [27] = test system: Streptococcus pyogenes C203; assay: ED50 in mice with experimental infections (Table IV); format: in vivo; conditions: Streptococcus pyogenes, doses given 1 and 4 hours postinfection
# In short: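 Read-out is ED50, the mg/kg dose protecting half of infected mice; values refer to each of two doses, given 1 and 4 hours after infection.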
# [28] = C203, oral, read-out: ED50, Oral
# [29] = C203, sc, subcutaneous, read-out: ED50, Subcutaneous
Structure (SMILES),mortality at 30 mg/kg [1] [%],minimal inhibitory concentration (MIC) [2],minimal inhibitory concentration (MIC) [3],minimal inhibitory concentration (MIC) [4],minimal inhibitory concentration (MIC) [5],minimal inhibitory concentration (MIC) [6],minimal inhibitory concentration (MIC) [7],minimal inhibitory concentration (MIC) [8],minimal inhibitory concentration (MIC) [9],minimal inhibitory concentration (MIC) [10],minimal inhibitory concentration (MIC) [11],minimal inhibitory concentration (MIC) [12],minimal inhibitory concentration (MIC) [13],minimal inhibitory concentration (MIC) [14],minimal inhibitory concentration (MIC) [15],minimal inhibitory concentration (MIC) [16],minimal inhibitory concentration (MIC) [17],minimal inhibitory concentration (MIC) [18],minimal inhibitory concentration (MIC) [19],minimal inhibitory concentration (MIC) [20],other results
CCC1OC(=O)CC(O)C(C)C(OC2OC(C)C(O)C(N(C)C)C2O)C(CC=O)CC(C)C(=O)C=CC(C)=CC1COC(=O)NCc1ccccc1 (centres unmarked) [Compound 76],100,0.06,0.25,1,0.125,0.125,0.125,0.125,0.015,0.125,0.25,0.5,0.125,6.25,6.25,> 50,0.097,3.12,3.12,0.39,"minimal inhibitory concentration (MIC) [21]: < 0.048; minimal inhibitory concentration (MIC) [22]: 6.25; minimal inhibitory concentration (MIC) [23]: 0.39; minimal inhibitory concentration (MIC) [24]: 6.25; minimal inhibitory concentration (MIC) [25]: 0.78; minimal inhibitory concentration (MIC) [26]: 3.12; ED50 [27, 28]: > 100 mg/kg; ED50 [27, 29]: 25 mg/kg"
"CCC1OC(=O)CC(O)C(C)C(OC2OC(C)C(O)C(N(C)C)C2O)C(CC=O)CC(C)C(=O)C=CC(C)=CC1COC(C)=O (centres unmarked) [Compound 13, 23-O-Acetyl-OMT]",0,0.125,0.5,4,0.25,0.25,0.25,0.5,0.125,0.25,0.25,1,0.25,1.56,3.12,1.56,0.05,1.56,6.25,0.195,"minimal inhibitory concentration (MIC) [21]: 0.097; minimal inhibitory concentration (MIC) [22]: 1.56; minimal inhibitory concentration (MIC) [23]: 0.39; minimal inhibitory concentration (MIC) [24]: 3.12; minimal inhibitory concentration (MIC) [25]: 0.78; minimal inhibitory concentration (MIC) [26]: 3.12; ED50 [27, 28]: 109 mg/kg; ED50 [27, 29]: 3.3 mg/kg"
"CCC(=O)OCC1C=C(C)C=CC(=O)C(C)CC(CC=O)C(OC2OC(C)C(O)C(N(C)C)C2OC(C)=O)C(C)C(O)CC(=O)OC1CC (centres unmarked) [Compound 12, 2'-O-Acetyl-23-O-propionyl-OMT]",0,0.25,0.5,8,0.5,0.5,0.25,0.5,0.125,0.5,0.5,2,0.25,1.56,0.78,0.78,< 0.05,1.56,3.12,0.39,"minimal inhibitory concentration (MIC) [21]: < 0.05; minimal inhibitory concentration (MIC) [22]: 1.56; minimal inhibitory concentration (MIC) [23]: 0.39; minimal inhibitory concentration (MIC) [24]: 6.25; minimal inhibitory concentration (MIC) [25]: 3.12; minimal inhibitory concentration (MIC) [26]: 3.12; ED50 [27, 28]: 150 mg/kg; ED50 [27, 29]: 8.1 mg/kg"
CCC1OC(=O)CC(O)C(C)C(OC2OC(C)C(O)C(N(C)C)C2O)C(CC=O)CC(C)C(=O)C=CC(C)=CC1COS(=O)(=O)c1ccc(C)cc1 (centres unmarked) [Compound 46],80,0.125,0.25,1,0.25,0.25,0.25,0.25,0.03,0.25,0.25,1,0.25,1.56,6.25,6.25,0.05,3.12,3.12,0.097,"minimal inhibitory concentration (MIC) [21]: 0.097; minimal inhibitory concentration (MIC) [22]: 3.12; minimal inhibitory concentration (MIC) [23]: 0.195; minimal inhibitory concentration (MIC) [24]: 3.12; minimal inhibitory concentration (MIC) [25]: 0.78; minimal inhibitory concentration (MIC) [26]: 3.12; ED50 [27, 28]: 146 mg/kg; ED50 [27, 29]: 15 mg/kg"
"CCC1OC(=O)CC(O)C(C)C(OC2OC(C)C(O)C(N(C)C)C2O)C(CC=O)CC(C)C(=O)C=CC(C)=CC1COC(=O)Cc1ccccc1 (centres unmarked) [Compound 29, 23-O-Phenylacetyl-OMT]",0,0.06,0.125,1,0.125,0.125,0.25,0.125,0.03,0.125,0.125,0.5,0.125,0.78,1.56,1.56,0.05,1.56,3.12,0.05,"minimal inhibitory concentration (MIC) [21]: 0.05; minimal inhibitory concentration (MIC) [22]: 1.56; minimal inhibitory concentration (MIC) [23]: 0.097; minimal inhibitory concentration (MIC) [24]: 3.12; minimal inhibitory concentration (MIC) [25]: 0.195; minimal inhibitory concentration (MIC) [26]: 3.12; ED50 [27, 28]: > 100 mg/kg; ED50 [27, 29]: 5 mg/kg"
